# US20220380430A1, “Non-Transgenic Functional Rescue of Neuropeptides” (Worcester Polytechnic Institute, priority 2021, published 2022)
# Columns and labels:
# C. elegans = assay: Single worm attraction assay (SWAA) of ascarosides; format: in vivo; conditions: males; in words
# Method: The spot retention assay was adapted to allow for better characterization of individual worm behavior and robust interrogation of attraction to small molecules. The attractiveness of 1 μM ascr #8 (FIG. 11A) were compared across multiple strains of C. elegans (the wild-type N2 strain, the high incidence of male him-5 and him-8 strains, and the chemosensory cilia defective osm-3), using the novel behavioral assay, the single worm attraction assay (SWAA) (FIG. 11A). In this assay, individual animals were placed directly into the spot of the ascaroside cue (A) while simultaneously removing any potential of male-male contact. […] Likewise, a vehicle control (V) is also included, to account of any changes in dwell time that are driven by the components of the vehicle. The outer forty wells of a 48-well suspension culture plate (Olympus Plastics, Cat #: 25-103) were seeded with 200 μL of standard NGM agar. To prepare the plates for the assay, they were acclimated to room temperature, at which point each well was seeded with 65 μL of OP50 E. coli. The assay plates were then transferred to a 37° C. incubator with the lid tilted for 4 h to allow the bacterial culture to dry on the agar. Once the bacterial culture dried, the lid was replaced the plate was stored at 20° C. until used in the assay. Fifty to sixty L4 worms were segregated by sex and stored at 20° C. for 5 h to overnight to be assayed as young adults. 0.8 μL of either vehicle control or ascaroside #8 was placed in the center of the well corresponding to that condition within the quadrant being tested, following a random block design (FIG. 11A). A single worm was placed in each of the 10 wells to be assayed, and the plate was transferred to a light source and camera and recorded for 15 m. […] Raw dwell time values were calculated by subtracting the time a worm exited the cue (center of the well in spatial controls), from the time it entered, as in the SRA. This was determined per visit, and the average dwell time was calculated for each animal in the quadrant. Averages of the four-quadrant means were determined per plate, and a minimum of five plates were assayed per strain/condition. The mean raw dwell time across five plates was calculated and used for statistical analyses and graphical display. […] An “attractive visit” was first determined for each plate as any visit greater than two standard deviations above the mean dwell time within the vehicle control for that plate. Any individual visit meeting this threshold was scored as a “1”, and any below was scored a “0”. The percent visits per-worm that were attractive was determined, and the average of each quadrant taken. […] The average percent of attractive visits across five plates was calculated and used for statistical analyses and graphical display.
# trh-1 mutant worms = assay: Size comparison (body volume) after rescue-by-feeding; format: in vivo, C. elegans; conditions: for restoration of body volume: trh-1 lof animals fed E. coli expressing peptide, in words; for Relative Body Volume: trh-1 mutant animals fed peptide, N2 set as 100%
# Method: All animals were maintained on bacterial lawns of OP50 E. coli, at 20° C., on NGM agar plates until the start of experiments. Mutant or control animals were transferred onto lawns of DH5α E. coli expressing either scramble peptide or the rescue peptide-of-interest on NGM plates containing […] AMP and 1 mM IPTG. Animals were reared on the peptide-expressing lawns for at least 48 hours at 20° C. before assaying for rescue of mutant phenotype at the appropriate developmental stage.
# The body morphology different of trh-1 mutants was compared to wild-type worms by body volume measurements. Wild-type (N2) and trh-1 animals were synchronized by embryonic starvation following alkaline hypochlorite protocols. Ten gravid hermaphrodites from OP50 E. coli plates were picked into 30 μL drops of alkaline hypochlorite solution (20% sodium hypochlorite, 500 mM KOH). Two drops were placed on either side of an unseeded NGM plate, resulting in 20 animals per plate. Plates were then incubated for 24 hours at 20° C. before L1 larval animals washed with 1 mL M9 (22 mM KH2PO4, 42.25 mM Na2HPO4, 85.5 mM NaCl, 1 mM MgSO4) per unseeded NGM plate. Allow L1 worms to settle into pellet before removing M9 supernatant. Repeat washing step 2 more times. Plate worm pellet onto NGM with […] AMP and 1 mM IPTG plates containing 75 μL peptide lawns.
# After at 48 hours at 20° C., animals were recorded using a Basler acA2500-14 uM camera using WormLab software (WormLab 4.1; MBF Bioscience, 2017) for 65 seconds. Worm length, width, and area were calculated within the WormLab software (FIG. 5C-FIG. 5H). As the WormLab worm width metric is an average of cross-sections throughout the length of each worm, this was used to calculate the volume of a worm as a cylinder, with the Volume=π*(0.5*width)^2*length (FIG. 2A-FIG. 2B, FIG. 5A-FIG. 5B).
# Two to four plates were recorded per day for at least three days to generate data sets. Control plates of N2 and trh-1 animals raised on the scramble peptide were grown alongside every rescue feeding. Each “worm track” was considered an n=1. Tracks were excluded if (1) worm tracks less than 10 seconds, or (2) worms were further than two standard deviations from the mean metric. Following tests for normality, comparisons were made using either Mann-Whitney tests for direct comparisons between N2 and trh-1 animals reared on OP50, or Kruskal-Wallis non-parametric ANOVAs and Dunn's multiple comparisons tests for animals raised on peptide feeding strains. Comparisons were made for metrics: length (FIG. 5C-FIG. 5D), width (FIG. 5e-FIG. 5F), area (FIG. 5G-FIG. 5H), and volume (FIG. 2A-FIG. 2B, FIG. 5A-FIG. 5B).
Compound,male attraction in the SWAA (C. elegans),restoration of body volume (trh-1 mutant worms),Relative Body Volume (trh-1 mutant worms)
C[C@H](CCCC/C=C/C(=O)O)O[C@@H]1O[C@@H](C)[C@H](O)C[C@H]1O [ascr #3],maintains its ability to attract males in the SWAA,,
ANELF-NH2 [TRH-1B],,complete restoration of wild-type body volume,~100%
GRELF-NH2 [TRH-1A],,complete restoration of wild-type body volume,~100%
